Patent publication US20240050735A1, “SYSTEMS AND METHODS FOR TREATING AND INHIBITING WOUND INFECTIONS” (priority 2020, published 2024)
“And” between values parts separate entries of the source, which are not always exact repeats. Identical values can stand only once. Counter-ions that a name gives are not always drawn. Like-named read-outs stand apart in the source and are kept apart here.

Key:
[1] = type: in vitro ADME; settings: for permeation coefficient (Pc): 1 mg mL^−1 VAN; for accumulated concentration in wound tissue: 1 mg mL^−1 VAN loaded
Experimental: Investigations were also performed to determine the iontophoretic antibiotic delivery efficiency of the HIC-based biofilm treatment system 100 using high current intensities. These investigations included an ex vivo antibiotic delivery study using the same MRSA biofilm-infected porcine skin wound model as in the previous section. Vancomycin (VAN) was used here as a model drug, since it is the FDA-approved antibiotic and is the clinical gold standard for combating S. aureus infections.
First the VAN delivery efficiency was tested at different current intensities (from 0 mA cm^−2 (passive diffusion) to 75 mA cm^−2) applied by the HIC-based biofilm treatment system 100 for 1 hour. The drug/buffer chamber 114 of the working device 104 was loaded with 1 mg mL^−1 VAN in this study. The anode side was used as the working device 104 because VAN required anodal iontophoresis. The accumulated concentration of VAN in biofilm infected skin wound was measured immediately after iontophoresis using high performance liquid chromatography (HPLC). […] When 75 mA cm^−2 was used, the VAN concentration in wound tissue increased to 4.5±0.52 mg g^−1. The VAN concentration in wound tissue after passive diffusion, 0.5 mA cm^−2, and 19 mA cm^−2 iontophoresis were also measured. However, they could not be distinguished from the background interference of the residual biofilm components, so no quantitative results were obtained (data not shown). Importantly, the VAN concentration delivered by 75 mA cm^−2 iontophoresis for 1 hour exceeded the minimal biofilm eradication concentration (MBEC) of VAN reported for MRSA biofilm, which was 4 mg g^−1. The ability to deliver a lethal antibiotic concentration into biofilm-infected wounds within a short period of time was critical for biofilm treatment as it would minimize the chance for bacteria to develop adaptive tolerance.
The fetal pig skin samples (approximately 30×30 mm) were immersed in 10% (v/v) bleach for 5 minutes after hair removal. Then, skin samples were sterilized in 70% ethanol for 30 minutes. The surface of skin sample was further cleaned by 10% povidone-iodine and 70% isopropanol to prevent contamination. A 6-mm disposable biopsy punch was used to create an excisional wound. Samples were put into sterile 10-cm petri-dishes filled with sterile PBS (6 mL). The wound was then inoculated with 1×10^8 CFU mL^−1 MRSA bacteria solution (20 μL). The bacteria were allowed to grow in a 37° C. Heratherm™ compact microbiological incubator (ThermoFischer Scientific™, Waltham, Mass., USA) for 48 hours to form mature biofilms.
To evaluate the antibiotic delivery efficacy of VAN by high-intensity current, biofilm infected fetal pig skin wound was used. The DAP test setup was same as that of VAN, except no PBS chamber 122 was used. Instead, the inner surface of the skin wound contacted directly to the hydrogel 120 of the counter device 106. To evaluate the effect of electrical current intensity on the drug delivery efficacy, different current intensities from 0 to 75 mA cm^−2 were applied. To evaluate the effect of loading concentration of antibiotics, different concentrations of VAN and DAP from 1 mg mL^−1 to 10 mg mL^−1 were used. Since VAN is […] and DAP is negatively charged under physiological environment, anode HIC-based device was placed facing biofilm for VAN iontophoresis, and cathode HIC-based device was placed facing biofilm for DAP iontophoresis. Samples were collected immediately after different treatments. The concentrations of antibiotics delivered into skin wound samples were measured by high-performance liquid chromatography (HPLC). The permeation coefficient (Pc, cm s^−1) was then calculated (Pc=J/C, where J is antibiotic delivery flux in tissue samples (μg (cm^2s)^−1, C is the loading concentration of antibiotic solution (μg m L^−1)). […]

[2] = tested on: planktonic MRSA; experiment: Minimum inhibitory concentration (MIC) to planktonic MRSA; type: cell-based, Methicillin-resistant S. aureus (MRSA) USA300; settings: Staphylococcus aureus; planktonic MRSA cells, 24 hours, OD600
Experimental: Methicillin-resistant S. aureus (MRSA) USA300 strain was used in this study. The planktonic bacteria were cultured in LB medium. Vancomycin hydrochloride (Apexbio Technology LLC, Houston, Tex., USA) and daptomycin (Combi-Blocks, San Diago Calif., USA) were used to treat MRSA biofilm. The minimum inhibitory concentration (MIC) of vancomycin hydrochloride to planktonic MRSA cells was determined as 1.2 μg mL^−1 (see FIG. 17B), which was in consistent with the results reported previously.
MRSA bacteria was cultured in LB media in a 37° C. water shaking bath overnight to reach the concentration of 1×10^8 CFU mL^−1. Then, they were diluted to 10^5 CFU mL^−1 in 96-well plates by adding different concentrations of VAN solutions. After incubation for 24 hours without shaking, MIC of VAN to inhibit MRSA growth was measured by a Biotek Synergy H1 hybrid multi-mode microplate reader (BioTek, Winooski, Vt., USA) at OD600. To evaluate the killing time of VAN to bacteria in stationary phase (1×10^8 CFU mL^−1), VAN powder was added to bacteria solution to obtain concentration of 1 mg mL^−1, 3 mg mL^−1, 5 mg mL^−1, and 10 mg mL^−1, respectively, while remaining MRSA concentration of 1×10^8 CFU mL^−1. After incubation in a 37° C. water bath for 1 day, 2 days, 3 days and 4 days, the CFU of MRSA cells was tested by the standard plate spread counting assay, respectively. […]

[3] = tested on: HaCaT cells; experiment: Cell toxicity of high concentration of antibiotics, LIVE/DEAD stain; type: cell-based, human; settings: 4.5 mg mL^−1 VAN, 48 hour incubation
Experimental: (§1) To evaluate the cell toxicity of the high concentration of antibiotics, HaCaT cells and HDFa cells were used. 2×10^4 HaCat cells and 2×10^3 HDFa cells were seeded in each well of a 96-well plate. After being cultured in an incubator under 37° C. and 5% CO2 for 24 hours, 4.5 mg mL^−1 VAN and 20 mg mL^−1 DAP were added to the culture media, respectively. Both HaCat cells and HDFa cells were treated by VAN for two days, and exposed to DAP for one day, respectively. The cell toxicity of the two cells at the end time points were evaluated by LIVE/DEAD stain and visualized by a confocal laser scanning microscope (CLSM, LSM 710, Zeiss, Germany).

[4] = tested on: HDFa cells; experiment: as above; type: cell-based, human; settings: 4.5 mg mL^−1 VAN, 48 hour incubation
Experimental: as §1

[5] = tested on: MRSA biofilm; settings: cited from earlier work
[6] = tested on: C. difficle; settings: cited from earlier work
[7] = 0.3 mA cm^−2 for 4 hours; cited from earlier work

CN[C@H](CC(C)C)C(=O)N[C@H]1C(=O)N[C@@H](CC(N)=O)C(=O)N[C@H]2C(=O)N[C@H]3C(=O)N[C@H](C(=O)N[C@H](C(=O)O)c4cc(O)cc(O)c4-c4cc3ccc4O)[C@H](O)c3ccc(c(Cl)c3)Oc3cc2cc(c3O[C@@H]2O[C@H](CO)[C@@H](O)[C@H](O)[C@H]2O[C@H]2C[C@](C)(N)[C@H](O)[C@H](C)O2)Oc2ccc(cc2Cl)[C@H]1O [VAN, Vancomycin hydrochloride]
conventional Pc lower than Pc by 75 mA cm^−2 HIC iontophoresis ([1]; 0.31 mA cm^−2 conventional vs 75 mA cm^−2 HIC): 980 times
permeation coefficient (Pc) ([1]; 38 mA cm^−2, 1 hour): 112.0±20.97 ×10^−6 cm s^−1
accumulated concentration in wound tissue ([1]; 38 mA cm^−2, 1 hour): 2.5 ± 0.32 mg/g
permeation coefficient (Pc) ([1]; 75 mA cm^−2, 1 hour): 216.5±18.96 ×10^−6 cm s^−1
accumulated concentration in wound tissue ([1]; 75 mA cm^−2, 1 hour, hydrochloride): 4.5 ± 0.52 mg/g and 4.5 mg/g
concentration in wound tissue ([1]; 75 mA cm^−2, 1 hour, 5 mg mL^−1 VAN loaded): more than 16 mg g^−1
concentration in wound tissue ([1]; 75 mA cm^−2, 1 hour, 10 mg mL^−1 VAN loaded): more than 16 mg g^−1
MIC [2]: 1.2 µg/mL
viability of skin cells [3]: not affected
viability of skin cells [4]: not affected
minimal biofilm eradication concentration (MBEC) [5]: 4 mg/g
concentration at which antibacterial activity starts to decrease (paradoxical effect) [6]: 64 ×MIC
amount delivered into the epidermis by iontophoresis vs passive diffusion [7]: 2.1 times
